Patent US9695240B2, “Anthracycline derivative conjugates, process for their preparation and their use as antitumor compounds” (Genentech, Inc., priority 2008, dated 2017)
Entries after “also recorded” stand apart in the source; their conditions may differ.

Experiments:
[1] = tested on: BT-474 cells; assay: CellTiter-Glo in vitro cell proliferation assay, BT-474; assay type: cell-based
From the text: (§1) Cell-based in vitro assays may be used to measure viability, i.e. proliferation (IC50), cytotoxicity (EC50), and induction of apoptosis (caspase activation) of the ADC. The CellTiter-Glo® Luminescent Cell Viability Assay is a commercially available (Promega Corp., Madison, Wis.), homogeneous assay method based on the recombinant expression of Coleoptera luciferase (U.S. Pat. Nos. 5,583,024; 5,674,713; 5,700,670). This cell proliferation assay determines the number of viable cells in culture based on quantitation of the ATP present, an indicator of metabolically active cells (Crouch et al (1993) J. Immunol. Meth. 160:81-88; U.S. Pat. No. 6,602,677). The CellTiter-Glo® Assay is conducted in 96 well format, making it amenable to automated high-throughput screening (HTS) (Cree et al (1995) AntiCancer Drugs 6:398-404). The homogeneous assay procedure involves adding the single reagent (CellTiter-Glo® Reagent) directly to cells cultured in serum-supplemented medium. Cell washing, removal of medium and multiple pipetting steps are not required. The system detects as few as 15 cells/well in a 384-well format in 10 minutes after adding reagent and mixing.
(§2) The in vitro potency of antibody-drug conjugates was measured by a cell proliferation assay (FIGS. 8-29). The CellTiter-Glo® Luminescent Cell Viability Assay is a commercially available (Promega Corp., Madison, Wis.), homogeneous assay method based on the recombinant expression of Coleoptera luciferase (U.S. Pat. Nos. 5,583,024; 5674,713; 5,700,670). This assay determines the number of viable cells in culture based on quantitation of the ATP present, an indicator of metabolically active cells (Crouch et al (1993) J. Immunol. Meth. 160:81-88; U.S. Pat. No. 6,602,677). The CellTiter-Glo® Assay was conducted in 96 well format, making it amenable to automated high-throughput screening (HTS) (Cree et al (1995) AntiCancer Drugs 6:398-404). The homogeneous assay procedure involves adding the single reagent (CellTiter-Glo® Reagent) directly to cells cultured in serum-supplemented medium.
(§3) The homogeneous “add-mix-measure” format results in cell lysis and generation of a luminescent signal proportional to the amount of ATP present. The substrate, Beetle Luciferin, is oxidatively decarboxylated by recombinant firefly luciferase with concomitant conversion of ATP to AMP and generation of photons. Viable cells are reflected in relative luminescence units (RLU). Data can be recorded by luminometer or CCD camera imaging device. The luminescence output is presented as RLU, measured over time. Alternatively, photons from luminescence can be counted in a scintillation counter in the presence of a scintillant. The light units can be represented then as CPS—counts per second.
(§4) Efficacy of ADC were measured by a cell viability assay employing the following protocol, adapted from CellTiter Glo Luminescent Cell Viability Assay, Promega Corp. Technical Bulletin TB288 and Mendoza et al (2002) Cancer Res. 62:5485-5488: • 1. An aliquot of 50 μl of cell culture containing about 1000 or more cells, including: HER2-expressing and CD22-expressing cells, in medium was deposited in each well of a 96-well, opaque-walled, clear bottom plate. • 2. ADC (50 μl) was added to triplicate experimental wells to final concentration of 10 μg/mL, with “no ADC” control wells receiving medium alone, and incubated for 3 or more days. • 3. The plates were equilibrated to room temperature for approximately 30 minutes. • 4. CellTiter-Glo Reagent (100 μl) was added. • 5. The contents were mixed for 2 minutes on an orbital shaker to induce cell lysis. • 6. The plate was incubated at room temperature for 10 minutes to stabilize the luminescence signal. • 7. Luminescence was recorded and reported in graphs as RLU=relative luminescence units.

[2] = tested on: MCF7 cells; assay: CellTiter-Glo in vitro cell proliferation assay, MCF7; assay type: cell-based, human
From the text: as §1, §2, §3, §4

[3] = tested on: tumor models; settings: cited from earlier work
[4] = tested on: doxorubicin-resistant (DoxRes) HER2 cells; assay: CellTiter-Glo in vitro cell proliferation assay, doxorubicin-resistant HER2; assay type: cell-based
From the text: as §1, §2, §3, §4

[5] = tested on: SK-BR-3 cells; assay: CellTiter-Glo in vitro cell proliferation assay, SK-BR-3; assay type: cell-based
From the text: as §1, §2, §3, §4

[6] = tested on: Burkitt's lymphoma Bjab-luc xenograft tumors; assay: in vivo Bjab-luc xenograft tumor efficacy study; design: species or system CB17 SCID mice
Method: The therapeutic effect of the antibody-drug conjugate (ADC) compounds and the improvement of their therapeutic efficacy in comparison with the parent drug, were assessed in animal models of human transplanted tumors. Mice bearing xenografts of human tumors were treated with suitable doses of antibody-drug conjugates, of PNU-159682 free drug, and naked antibody, at certain doses, and the tumor growth was recorded and compared in the different treatment groups. FIGS. 30-32 show the efficacy of the antibody-drug conjugates of Formula Ic by xenograft tumor inhibition in mice.
The efficacy of the antibody-drug conjugates of the invention may be measured in vivo by implanting allografts or xenografts of cancer cells or primary tumors in rodents and treating the tumors with ADC according to the procedures of Example 12. Variable results are to be expected depending on the cell line, the specificity of antibody binding of the ADC to receptors present on the cancer cells, dosing regimen, and other factors. For example, the in vivo efficacy of anti-HER2 ADC may be measured by a high expressing HER2 transgenic explant mouse model. […] Subjects are treated once with ADC and monitored over 3-6 weeks to measure the time to tumor doubling, log cell kill, and tumor shrinkage. Follow up dose-response and multi-dose experiments may be further conducted.
The Bjab-luc (EBV-negative Burkitt's lymphoma, luciferase expressing Bjab cells) tumors express CD22 receptor protein (Polson et al (2009) Cancer Res. 69(6):2358-2364; US 2008/0050310; US 2005/0276812). CD22 is expressed only in the B-cell compartment and on the surface of most NHL cells (D'Arena et al (2000) Am J Hematol. 64:275-81; Olejniczak et al (2006) Immunol Invest. 35:93-114). Efficacy in inhibiting the Bjab-luc xenograft tumor in mice as a model system may predict the clinical response in treating patients with hematopoietic malignancies such as non-Hodgkins lymphoma.
Efficacy studies were performed using SCID mice (Charles River Laboratories). […] When tumor volumes reached 150-200 mm^3 (typically Day 14 to Day 21 after inoculation), the mice were segregated into sample groups of 9-10 mice per group and the tumor volume was determined in each mouse. […] ADC doses were either measured as the mass of the conjugated cytotoxic small molecule drug per surface area of the mouse, or as a constant mass of ADC per mass of the mouse (e.g., 5 mg of ADC/kg mouse). […] Tumor volume was measured using calipers according to the formula: V (mm^3)=0.5A×B^2, where A and B are the long and short diameters, respectively. […] Data collected from each experimental group were expressed as mean±SE.

[7] = 8.77 ug/kg single iv dose day 0, 48 day study

For `COc1cccc2c1C(=O)c1c(O)c3c(c(O)c1C2=O)C[C@@](O)(C(=O)CO)C[C@@H]3O[C@H]1C[C@H]2[C@H](O[C@@H]3[C@@H](OC)OCCN32)[C@H](C)O1` [PNU-159682, 3′-deamino-3″,4′-anhydro-[2″(S)-methoxy-3″(R)-oxy-4″-morpholinyl]doxorubicin, reference compound], the “BT-474 in vitro cell viability at 3 days, in words” value ([1]; brief (1 hr) exposure) was “effectively inhibited growth”, the “BT-474 in vitro cell viability at 3 days, anti-proliferative activity in words” value ([1]; continuous exposure, 3 days) was “most potently inhibited; also recorded: caused cytotoxicity at all doses tested” and the “MCF7 in vitro cell viability at 3 days, in words” value ([2]; brief (1 hr) exposure) was “effectively inhibited growth”. For the same compound, the “MCF7 in vitro cell viability at 3 days, anti-proliferative activity in words” value ([2]; continuous exposure, 3 days) was “most potently inhibited; also recorded: caused cytotoxicity at all concentrations tested”, the “antitumor activity in in vivo tumor models, in words” value [3] was “effective in vivo tumor models” and the “DoxRes HER2 in vitro cell viability at 3 days, in words” value ([4]; brief (1 hr) exposure) was “effectively inhibited growth”. The “DoxRes HER2 in vitro cell viability at 3 days, anti-proliferative activity in words” value ([4]; continuous exposure, 3 days) was “most potently inhibited; also recorded: inhibited growth at all concentrations tested”, the “SK-BR-3 in vitro cell viability at 3 days, in words” value ([5]; brief (1 hr) exposure) was “effectively inhibited growth” and the “SK-BR-3 in vitro cell viability at 3 days, anti-proliferative activity in words” value ([5]; continuous exposure, 3 days) was “most potently inhibited; also recorded: caused cytotoxicity at all doses tested”. For the same compound, the CR-complete tumor regression [6, 7] was 0, the PR-partial tumor regression [6, 7] was 0 and the TI-tumor incidence [6, 7] was 9/9. For the same compound, the “tumor growth inhibition in Bjab-luc xenograft, in words” value ([6]; single dosing on day 0, doses of FIG. 30) was “no effect on tumor growth”.
